Test results from ChEMBL document CHEMBL1667856, “Efficient synthesis and biological evaluation of 1,3-benzenedicarbonyl dithioureas” (Bioorg Med Chem Lett, 2011).
Several values for one entry are separate records, joined by “and”; a condition that tells them apart may be missing. Identical values can stand only once.

What was measured:
[1] = test system: KB; assay: Cytotoxicity against human KB cells after 72 hrs by MTT assay; assay type: functional, cell-based
[2] = Cytotoxicity against human CNE2 cells after 72 hrs by MTT assay; assay type: functional, cell-based, CNE-2

| Structure (SMILES) | IC50 ([1]; Homo sapiens, KB, 72 h) [µM] | IC50 ([2]; Homo sapiens, CNE-2, 72 h) [µM] | IC50 ([1]; kb) | IC50 ([2]; cne-2) |
| --- | --- | --- | --- | --- |
| Cc1ccc(NC(=S)NC(=O)c2cccc(C(=O)NC(=S)Nc3ccc(C)cc3)c2)cc1 | 15.3 | 33 | – | – |
| O=C(NC(=S)Nc1ccccc1C(F)(F)F)c1cccc(C(=O)NC(=S)Nc2ccccc2C(F)(F)F)c1 | 26.1 | 18.5 | – | – |
| O=C(NC(=S)Nc1cccc(Br)c1)c1cccc(C(=O)NC(=S)Nc2cccc(Br)c2)c1 | 15.2 | 18.6 | – | – |
| O=C(NC(=S)Nc1cccc(Cl)c1)c1cccc(C(=O)NC(=S)Nc2cccc(Cl)c2)c1 | 12 | 16.3 | – | – |
| O=C(NC(=S)Nc1ccc(Br)cc1)c1cccc(C(=O)NC(=S)Nc2ccc(Br)cc2)c1 | 23.2 | 32.7 | – | – |
| O=C(NC(=S)Nc1ccc(F)cc1)c1cccc(C(=O)NC(=S)Nc2ccc(F)cc2)c1 | 43.2 | 33 | – | – |
| COc1ccc(NC(=S)NC(=O)c2cccc(C(=O)NC(=S)Nc3ccc(OC)cc3)c2)cc1 | > 50 | 30.3 | – | – |
| O=C(NC(=S)Nc1ccccc1Cl)c1cccc(C(=O)NC(=S)Nc2ccccc2Cl)c1 | 38.8 | > 50 | – | – |
| O=c1[nH]cc(F)c(=O)[nH]1 [FLUOROURACIL] | 15.9 | – | – | – |
| O=C(NC(=S)Nc1ccc(O)cc1)c1cccc(C(=O)NC(=S)Nc2ccc(O)cc2)c1 | 20 | 16.6 | – | – |
| O=C(NC(=S)Nc1ccc([N+](=O)[O-])cc1)c1cccc(C(=O)NC(=S)Nc2ccc([N+](=O)[O-])cc2)c1 | 35.7 | > 50 | – | – |
| O=C(NC(=S)Nc1ccc(Cl)cc1)c1cccc(C(=O)NC(=S)Nc2ccc(Cl)cc2)c1 | 13.7 | 15.7 | – | – |
| O=C(NC(=S)Nc1ccccc1O)c1cccc(C(=O)NC(=S)Nc2ccccc2O)c1 | – | – | 10.7 µM and > 50 µM | 9.91 µM and > 50 µM |
| O=C(NC(=S)Nc1ccccc1F)c1cccc(C(=O)NC(=S)Nc2ccccc2F)c1 | 45 | 38.6 | – | – |
| Cc1ccccc1NC(=S)NC(=O)c1cccc(C(=O)NC(=S)Nc2ccccc2C)c1 | > 50 | > 50 | – | – |
| O=C(NC(=S)Nc1ccccc1)c1cccc(C(=O)NC(=S)Nc2ccccc2)c1 | > 50 | > 50 | – | – |
| O=C(NC(=S)Nc1ccccc1Br)c1cccc(C(=O)NC(=S)Nc2ccccc2Br)c1 | 47.1 | > 50 | – | – |
